{"source": "patent US20190275061A1", "about": "“INHIBITION OF FIBROSIS IN NON ALCOHOL FATTY LIVER DISEASE PATIENTS” (GALMED RESEARCH AND DEVELOPMENT LTD, priority 2016, published 2019)", "key": {"[1]": {"system": "LX-2 human hepatic stellate cells", "assay": "Collagen production from LX-2 human hepatic stellate cells", "format": "cell-based", "details": "LX-2 cells, relative to a DMSO control"}, "[2]": {"system": "Thioacetamide (TAA)-Induced Fibrosis", "assay": "Thioacetamide (TAA)-induced fibrosis, model for hepatic cirrhosis", "format": "in vivo", "details": "5 mg/kg co-administered with TAA, 10 weeks, Wistar rats", "description": "Liver fibrosis was induces in Wistar rats by intraperitoneal injections of TAA […] body weight) twice per week during 10 weeks. I.p. application of TAA results in hepatic centrolobular necrosis, elevated transaminase activity and robust liver fibrosis. Treatment groups further included co-administration of Aramchol (1 or 5 mg/kg orally) or obaticholic acid (OCA, 5 mg/kg). A control group of saline-treated rats (in the absence of TAA administration) was further included. Rats were then sacrificed, and livers were observed macroscopically for signs of cirrhosis and necrotic lesions, and microscopically, following Masson Goldner staining. The fibrosis score, calculated at a scale of 0-4, was determined for each sample, wherein 0 indicates no fibrosis and 4 indicates advanced fibrosis and cirrhosis."}, "[3]": {"system": "0.1 MCD diet mouse model of NASH", "assay": "0.1% methionine- and choline-deficient (0.1 MCD) diet mouse model of NASH", "format": "in vivo, C57B1/6 mice", "details": "5 mg/Kg/day orally by gavage, 0.1 MCD-fed mice", "excerpt": "The study described below investigates the mechanism of action of Aramchol and its potential effect on fibrosis using the 0.1% methionine- and choline-deficient (0.1 MCD) diet mouse model of NASH.\nC57B1/6 were fed the Methionine and Choline Deficient (MCD) and control diet and were sacrificed after 4 weeks. The MCD diet induces aminotransferase elevation and changes in hepatic histological features, characterized by steatosis, local inflammation, hepatocyte necrosis and fibrosis. These changes occur rapidly and are morphologically similar to those observed in human NASH. In this study the MCD diet contained 0.1% methionine to minimize and stabilize weight loss. At the end of the second week, after verification of established NASH, 0.1 MCD-fed mice were treated orally by gavage with Aramchol (5 mg/Kg/day) or vehicle (n=10, each condition). Control diet-fed mice were also treated with vehicle for same duration (n=10). At the end of the experiment, blood and liver samples were obtained. A diagram of the experimental design is shown below: […]"}, "COL1A1": {"system": "COL1A1", "assay": "COL1A1 expression in LX-2 human hepatic stellate cells", "format": "cell-based", "details": "LX-2 cells, Aramchol 10 mM, 24 hours, RNA", "description": "(§1) LX2 cells (150.000 cells per well) were plated in DMEM media containing antibiotics, glutamine and bovine fetal serum. After 24 hours incubation, media was changed to 0% serum and incubated for an additional period of 16 hours. Then, Aramchol (10 mM) was added and 24 hours later RNA was extracted with Trizol."}, "PPAR-γ": {"system": "PPAR-γ", "assay": "PPAR-γ expression in LX-2 human hepatic stellate cells", "format": "cell-based", "details": "LX-2 cells, Aramchol 10 mM, 24 hours, RNA", "description": "as §1"}}, "note": "“Also recorded” adds a separate entry of the source."}
{"smiles": "CCCCCCCCCCCCCCCCCCCC(=O)N[C@H]1CCC2(C)C(CC(O)C3C2C[C@H](O)C2(C)C(C(C)CCC(=O)O)CCC32)C1", "note": "(stereo in doubt) [Aramchol, 3β-arachidylamido-7α, 12α-dihydroxy-5β-cholan-24-oic acid]", "values": [{"measurement": "collagen production", "setting": "[1]", "result": "significantly down regulates"}, {"measurement": "TAA induced fibrosis", "setting": "[2]", "result": "significantly prevented; also recorded: significantly inhibited"}, {"measurement": "collagen distribution in the tissue (FIG. 2)", "setting": "[2]", "result": "reduced significantly"}, {"measurement": "development of necrosis and cirrhosis (macroscopic, FIG. 1)", "setting": "[2]", "result": "reduced significantly; also recorded: significantly inhibited"}, {"measurement": "fibrotic score (Masson Goldner staining, scale 0-4, FIG. 2)", "setting": "[2]", "result": "reduced significantly"}, {"measurement": "FA(16:1)/FA(16:0) ratio", "setting": "[3]", "result": "marked decrease"}, {"measurement": "SCD1 activity", "setting": "[3]", "result": "reduced"}, {"measurement": "SCD1 expression", "setting": "[3]", "result": "marked decrease"}, {"measurement": "content of total oxFA including oxLA", "setting": "[3]", "result": "marked reduction"}, {"measurement": "hepatic content of diglycerides (DG) and TG", "setting": "[3]", "result": "reduction"}, {"measurement": "oxidative stress", "setting": "[3]", "result": "improved"}, {"measurement": "total content of monounsaturated FA (MUFA)", "setting": "[3]", "result": "marked decrease"}, {"measurement": "fibrosis in the liver (sirius red)", "setting": "[3]; from end of week 2 to week 4", "result": "significantly down regulates/normalizes; also recorded: reduction"}, {"measurement": "infiltration and activation status of macrophages in the liver (F4/80 and CD64)", "setting": "[3]; from end of week 2 to week 4", "result": "significantly down regulates/normalizes; also recorded: reduction"}, {"measurement": "steatosis in the liver (Sudan III)", "setting": "[3]; from end of week 2 to week 4", "result": "significantly down regulates; also recorded: reduction"}, {"measurement": "GSH/GSSG ratio", "setting": "[3]; liver", "result": "elevates; also recorded: normalization"}, {"measurement": "glutathione", "setting": "[3]; liver", "result": "significantly up regulates"}, {"measurement": "collagen in the liver", "setting": "[3]; liver extract", "result": "significantly down regulates"}, {"measurement": "COL1A1 expression", "setting": "COL1A1", "result": "significantly reduced"}, {"measurement": "PPARγ expression", "setting": "PPAR-γ", "result": "up-regulation"}]}
